According to PMC9822051, “A Study on the Chemistry and Biological Activity of 26-Sulfur Analogs of Diosgenin: Synthesis of 26-Thiodiosgenin S-Mono- and Dioxides, and Their Alkyl Derivatives” (Molecules, 2022):
In brackets after ≈: the same amount, converted by molar mass. Several values for one entry are separate records, joined by “and”; a condition that tells them apart may be missing. Equal entries are not always repeated. Where two headings read alike, the source gives them in different places.

Assays:
[1] = Cytotoxicity, resazurin, 72 h; assay type: cell-based, human; details: human
Experimental: (§1) The studied compounds were evaluated for cytotoxicity in human cancer cell lines (cervical carcinoma HeLa, chronic myelogenous leukemia K562 and breast adenocarcinoma MCF7) and normal human retina cells RPE-1 (ca. 5.0 × 10^4 cells·mL^−1) after 72 h of treatment using resazurin (Merck/MilliporeSigma, St. Louis, MO, USA) as described earlier for Calcein AM dye.

[2] = test system: Escherichia coli ATCC 35218; experiment: Antibacterial activity, broth microdilution (MIC/MBC); assay type: cell-based; details: E. coli ATCC 35218; for MIC: 37 °C, 24 h
Experimental: (§2) The antibacterial activity of tested compounds was assessed by monitoring the cell growth of Staphylococcus aureus 8325-4 and Escherichia coli ATCC 35218 using the broth microdilution method, conducted according to the National Committee for Clinical Laboratory Standards. First, compounds were dissolved in methanol and the solution was added to Mueller Hinton broth (MHB) for bacteria to give a final concentration of 2000 µg/mL. The samples were then serially two-fold diluted in bullion to obtain concentration ranging from 1000 to 0.12 μg/mL in 96-well microtiter plate with the final volumes of 100 μL. Next, 100 μL of bacteria suspension was injected into each well. The final bacteria cell concentration was 1 × 10^6 colony-forming units per ml (CFU/mL). The plates were incubated at 37 °C for 24 h. The MIC value was determined as the lowest concentration of an antibacterial agent that inhibited bacterial growth, as indicated by the absence of turbidity. The MBC value was determined as the lowest concentration of antibacterial agents for which no bacterial growth on the plates was observed.

[3] = test system: Staphylococcus aureus 8325-4; experiment: as above; assay type: cell-based; details: S. aureus 8325-4; for MIC: 37 °C, 24 h
Experimental: as §2

[4] = test system: S. aureus 8325-4 membrane proteins (Trp^214 residues); experiment: Trp fluorescence quenching of bacterial membrane proteins (Stern-Volmer); assay type: binding, Staphylococcus aureus; details: for Stern-Volmer constant KSV: compound 0.5–2.0 µM, PBS pH 7.4, λexc 295 nm, λem 350 nm; for quenching constant kq: kq = KSV/τ0
Source text: (§3) Based on fluorescence analysis, the Stern-Volmer plots were drawn (Figure 5) using equation given below (Equation (1)). (1) F0/F=1+KSV[Q] where: F0 and F are the Trp fluorescence without and in the presence of quencher (studied compounds), KSV—Stern-Volmer constant, [Q]—concentration of the quencher.
(§4) In order to check whether studied compounds form complexes with bacterial cells proteins, the quenching constants (kq) have been calculated using equation below (Equation (2)) and are presented in Table 3. (2) kq=KSV/τ0 where: kq—quenching constant, KSV—Stern-Volmer constant, τ0—fluorescence lifetime of fluorophore molecules.
(§5) Bacteria strains: S. aureus and E. coli grown overnight at 37 °C in Mueller Hinton (MH) broth with shaking at 200 rpm. Next, bacteria suspensions were centrifuged (2300× g, 15 min) and resuspended in PBS after removing the supernatant. For experiments, bacteria suspensions (OD600 = 0.1 in C = 10 mM PBS buffer, pH = 7.4) have been used in the presence (concentration range 0.5–2.0 µM) and without the studied compounds. The measurements were performed in quartz cuvette (1 cm × 1 cm). Fluorescence was monitored at the λexc. = 295 nm and λem. = 350 nm from tryptophan (Trp^214) residues in bacterial membrane proteins. The studies were carried out using Perkin-Elmer LS-55B (Perkin-Elmer, Pontyclun, UK) spectrofluorometer.

[5] = test system: E. coli ATCC 35218 membrane proteins (Trp^214 residues); experiment: as above; assay type: binding, Escherichia coli; details: for Stern-Volmer constant KSV: compound 0.5–2.0 µM, PBS pH 7.4, λexc 295 nm, λem 350 nm; for quenching constant kq: kq = KSV/τ0
Source text: as §3, §4, §5

[6] = test system: lung cancer cell line A549; design: method as in PMID 33402081, PMID 23751199; details: cited from earlier work
[7] = test system: breast adenocarcinoma MCF7; experiment: Cytotoxicity, resazurin, 72 h; assay type: cell-based, human; details: MCF7, 72 h
Experimental: as §1

cervical carcinoma HeLa = experiment: Cytotoxicity, resazurin, 72 h; assay type: cell-based, human
Experimental: as §1

[8] = test system: chronic myelogenous leukemia K562; experiment: Cytotoxicity, resazurin, 72 h; assay type: cell-based, human; details: K562, 72 h
Experimental: as §1

[9] = test system: normal human retina cells RPE-1; experiment: Cytotoxicity, resazurin, 72 h; assay type: cell-based; details: RPE-1 normal cells
Experimental: as §1

[10] = K562 chronic myelogenous leukemia cells, K562, 72 h
[11] = MCF7 breast adenocarcinoma cells, MCF7, 72 h
[12] = RPE-1 normal retina cells, RPE-1 normal cells
[13] = Escherichia coli, ATCC35218, read-out: MIC
[14] = Escherichia coli, ATCC35218, read-out: MBC
[15] = Staphylococcus aureus, 83254, read-out: MIC
[16] = Staphylococcus aureus, 83254, read-out: MBC

| SMILES | IC50 at 72 h ([1]; HeLa cervical carcinoma cells) [µM] | IC50 at 72 h [1, 10] [µM] | IC50 at 72 h [1, 11] [µM] | IC50 at 72 h [1, 12] [µM] | melting point [°C] | MIC [2, 13] | MBC [2, 14] [µg/mL] | MIC [3, 15] | MBC [3, 16] [µg/mL] | Stern-Volmer constant KSV [4] | quenching constant kq [4] | Stern-Volmer constant KSV [5] | quenching constant kq [5] | further results |
| --- | --- | --- | --- | --- | --- | --- | --- | --- | --- | --- | --- | --- | --- | --- |
| CCC1C(C)CCC2(OC3CC4C5CC=C6CC(O)CCC6(C)C5CCC4(C)C3C2C)S1(=O)=O (stereo not drawn) [26-Ethylsulfone 12] | 44.1 ± 0.1 | > 50 | > 50 | > 50 | 210 to 212 |  |  |  |  |  |  |  |  |  |
| CC1CCC2(OC3CC4C5CC=C6CC(O)CCC6(C)C5CCC4(C)C3C2C)SC1 (stereo not drawn) [26-Thiodiosgenin (3), 26-thiodiosgenin] | > 50 | > 50 | > 50 | > 50 |  | 62.5 µg/mL and 145 µM | 125 (≈ 290 µM) | 1.95 µg/mL and 4.5 µM | 3.9 (≈ 9.06 µM) | 8.322 ± 0.142 10^4 M^−1 | 16.62 ± 0.23 10^12 M^−1s^−1 | 5.091 ± 0.152 10^4 M^−1 | 10.02 ± 0.28 10^12 M^−1s^−1 | MBC [2]: 125 µg/mL (≈ 290 µM); MIC [2]: 62.5 µg/mL (≈ 145 µM); MBC [3]: 3.9 µg/mL (≈ 9.06 µM); MIC [3]: 1.95 µg/mL (≈ 4.53 µM) |
| C[C@@H]1CC[C@]2(O[C@H]3C[C@H]4[C@@H]5CC=C6C[C@@H](O[C@@H]7O[C@H](CO)[C@@H](O[C@@H]8O[C@@H](C)[C@H](O)[C@@H](O)[C@H]8O)[C@H](O)[C@H]7O[C@@H]7O[C@@H](C)[C@H](O)[C@@H](O)[C@H]7O)CC[C@]6(C)[C@H]5CC[C@]4(C)[C@H]3[C@@H]2C)SC1 [26-thiodioscine] |  |  |  |  |  |  |  |  |  |  |  |  |  | IC50 [6]: 3.72 µM |
| CC1CCC2(CC1)O[C@H]1C[C@H]3[C@@H]4CC[C@H]5C[C@@H](O)CC[C@]5(C)[C@H]4CC[C@]3(C)[C@H]1[C@@H]2C (stereo partly drawn) [Carbaanalog 5] | 38.2 ± 0.8 | > 50 | > 50 | > 50 |  | 500 µg/mL and 1210 µM | 1000 (≈ 2410 µM) | 7.8 µg/mL and 18.9 µM | 31.2 (≈ 75.4 µM) | 1.258 ± 0.189 10^4 M^−1 | 2.52 ± 0.32 10^12 M^−1s^−1 | 2.021 ± 0.198 10^4 M^−1 | 4.04 ± 0.45 10^12 M^−1s^−1 | MIC [2]: 500 µg/mL (≈ 1210 µM); MIC [3]: 7.8 µg/mL (≈ 18.8 µM) |
| CC1CCC2(OC3CC4C5CC=C6CC(O)CCC6(C)C5CCC4(C)C3C2C)[S+]([O-])C1(C)C (stereo not drawn) [Dimethylsulfoxide 10] | 32.2 ± 1.7 | > 50 | > 50 | > 50 |  |  |  |  |  |  |  |  |  |  |
| C[C@@H]1CC[C@@]2(OC1)O[C@H]1C[C@H]3[C@@H]4CC=C5C[C@@H](O)CC[C@]5(C)[C@H]4CC[C@]3(C)[C@H]1[C@@H]2C [Diosgenin (1), diosgenin] |  |  |  |  |  | 250 µg/mL and 603 µM | 500 (≈ 1210 µM) | 3.9 µg/mL and 9.4 µM | 15.6 (≈ 37.7 µM) | 5.441 ± 0.131 10^4 M^−1 | 10.93 ± 0.27 10^12 M^−1s^−1 | 3.384 ± 0.165 10^4 M^−1 | 6.76 ± 0.35 10^12 M^−1s^−1 | MBC [2]: 500 µg/mL (≈ 1210 µM); MIC [2]: 250 µg/mL (≈ 603 µM); MBC [3]: 15.615 µg/mL (≈ 37.7 µM); MIC [3]: 3.9 µg/mL (≈ 9.41 µM); IC50 at 72 h ([1]; HeLa): > 50 µM; IC50 at 72 h ([1]; RPE-1 normal cells): > 50 µM; IC50 at 72 h ([1]; K562, 72 h): > 50 µM; IC50 at 72 h ([1]; MCF7, 72 h): > 50 µM |
| CC1CCC2(OC3CC4C5CC6OC67CC(O)CCC7(C)C5CCC4(C)C3C2C)S(=O)(=O)C1 (stereo not drawn) [Epoxysulfone 9] | > 50 | > 50 | > 50 | > 50 |  |  |  |  |  |  |  |  |  |  |
| CC1CCC2(OC3CC4C5CC=C6CC(O)CCC6(C)C5CCC4(C)C3C2C)S(=O)(=O)C1 (stereo not drawn) [Sulfone 8] | > 50 | > 50 | > 50 | > 50 | 205 to 207 | 125 µg/mL and 270 µM | 250 (≈ 540 µM) | 3.9 µg/mL and 8.4 µM | 7.8 (≈ 16.9 µM) | 2.915 ± 0.175 10^4 M^−1 | 5.82 ± 0.31 10^12 M^−1s^−1 | 2.962 ± 0.105 10^4 M^−1 | 5.92 ± 0.16 10^12 M^−1s^−1 |  |
| CC1CCC2(OC3CC4C5CC=C6CC(O)CCC6(C)C5CCC4(C)C3C2C)[S+]([O-])C1 (stereo not drawn) [Sulfoxide 6] | > 50 | > 50 | > 50 | > 50 | 143 to 146 | 125 µg/mL and 280 µM | 250 (≈ 560 µM) | 3.9 µg/mL and 8.7 µM | 7.8 (≈ 17.5 µM) | 4.051 ± 0.170 10^4 M^−1 | 8.14 ± 0.35 10^12 M^−1s^−1 | 1.456 ± 0.201 10^4 M^−1 | 2.92 ± 0.36 10^12 M^−1s^−1 |  |
| CC1CCC2(OC3CC4C5CC=C6CC(O)CCC6(C)C5CCC4(C)C3C2C)[S+]([O-])C1 (stereo not drawn) [Sulfoxide 7] |  |  |  |  | 165 to 166 |  |  |  |  |  |  |  |  | IC50 [7]: > 50 µM; IC50 (cervical carcinoma HeLa): 34.3 ± 3 µM; IC50 [8]: > 50 µM; IC50 [9]: > 50 µM |
| C[C@@H]1CC[C@@]2(OC1)O[C@H]1C[C@H]3[C@@H]4CC=C5C[C@@H](O[C@@H]6O[C@H](CO)[C@@H](O[C@@H]7O[C@@H](C)[C@H](O)[C@@H](O)[C@H]7O)[C@H](O)[C@H]6O[C@@H]6O[C@@H](C)[C@H](O)[C@@H](O)[C@H]6O)CC[C@]5(C)[C@H]4CC[C@]3(C)[C@H]1[C@@H]2C [dioscine] |  |  |  |  |  |  |  |  |  |  |  |  |  | IC50 [6]: 4.02 µM |
| CC1CCC2(OC3CC4C5CC=C6CC(O)CCC6(C)C5CCC4(C)C3C2C)S(=O)(=O)C1C (stereo not drawn) [α-Methylsulfone 11] | 92.3 | > 50 | > 50 | > 50 | 225 to 227 | 125 µg/mL and 262 µM | 250 (≈ 524 µM) | 3.9 µg/mL and 8.2 µM | 7.8 (≈ 16.4 µM) | 3.442 ± 0.168 10^4 M^−1 | 6.84 ± 0.34 10^12 M^−1s^−1 | 2.470 ± 0.101 10^4 M^−1 | 4.94 ± 0.17 10^12 M^−1s^−1 |  |
